In patent US20160376240A1, “6 Phenyl or 6 Pyridin 3 YL Indazole Derivatives and Methods of Use” (ABBVIE INC., priority 2014, published 2016):

What was measured:
Type in all cases: biochemical
[1] = target: T1, TrkC (Homo sapiens, UniProt Q16288); assay: TrkC kinase inhibition, HTRF assay; details: LCK peptide substrate, assay ATP concentration targeted 5 μM
T1 construct: purchased Invitrogen PV3617
Experimental: (§1) TrkA, TrkB, and TrkC enzymes were obtained from Invitrogen (as catalog numbers PV3144, PV3616, and PV3617, respectively). The ability of a compound to inhibit the enzymatic activity of the TrkA, TrkB, and TrkC enzymes was determined in separate assays. Enzyme activity was measured in an HTRF® (homogeneous time resolved fluorescence) assay, which detects enzymatic phosphorylation of a biotinylated synthetic peptide substrate (an LCK peptide analog, biotin-ahx-GAEEEIYAAFFA, from Genemed Synthesis). Phosphorylation is assessed by HTRF® in the presence of an anti-phosphotyrosine antibody conjugated to Eu^3+ cryptate (Cisbio) as donor fluorophore, and streptavidin conjugated to allophycocyanin (ProZyme) as acceptor fluorophore. The HTRF® signal was detected at two different wavelengths (620 nm and 665 nm) which were used to calculate the fluorescence ratio.
(§2) Each enzyme was titrated to a concentration optimized to ensure accurate measurement of the initial reaction rate. To allow the Trk enzymes to undergo activation and auto-phosphorylation, a 20 minute pre-incubation with ATP was carried out (at twice the final targeted enzyme and ATP concentration) prior to addition of test compound and the peptide substrate.
(§3) TrkA in vitro assays were performed by pre-incubating TrkA (2-10 nM) with ATP (200 μM) for 20 minutes at ambient temperature in 50 mM HEPES pH 7.4, 10 mM MgCl2, 2 mM MnCl2, 100 μM Na3VO4, 1 mM dithiothreitol, 0.01% BSA (bovine serum albumin). Then, to the activated Trk enzyme mixture was added the test compound in 2% dimethyl sulfoxide. After 10 minutes, the peptide substrate (125 nM) was added. After 1 hour, enzyme reactions were terminated by addition of equal reaction volumes of detection/stop reagent (containing 0.2 μg/mL anti-phosphotyrosine monoclonal antibody labeled with europium from Cisbio (catalog# PT66-K), and 4 μg/mL PhycoLink® Streptavidin-Allophycocyanin conjugate from ProZyme (catalog# PJ25S) in 60 mM EDTA in 40 mM HEPES pH 7.4, 480 mM KF, 0.01% Tween® 20 and 0.1% BSA bovine serum albumin) Reaction plates were stored at 4° C. overnight before reading the fluorescence ratio signal on a PerkinElmer EnVision™ fluorescence detector. Individual reaction wells were stopped at time points to obtain reaction rates. The test inhibitor compounds were assayed in duplicate, at half-log serial dilutions over a range of concentrations (e.g. starting at 50 μM or 5 μM as the high compound concentration). The percent Trk enzyme inhibition was calculated from the initial rates of the inhibited reactions relative to the uninhibited control. IC50 values were calculated by fitting the inhibition percent to the concentration of inhibitor [I] in the assay in equation 1 below, to solve for the IC50.
(§4) Inhibition %=100[I]/([I]+[IC50]) equation 1
(§5) The TrkB and TrkC in vitro assays were performed as described above, except that for these enzymes the assay ATP concentration targeted was 5 μM.

[2] = target: T2, TrkA (Homo sapiens, UniProt P04629); assay: TrkA kinase inhibition, HTRF assay; details: LCK peptide substrate 125 nM, TrkA 2-10 nM pre-incubated with ATP 200 μM
T2 construct: purchased Invitrogen PV3144
Method in brief: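 TrkA (2-10 nM) preactivated 20 min with 200 μM ATP in HEPES pH 7.4 with Mg2+/Mn2+, then compound for 10 min, then 125 nM biotinylated LCK-peptide for 1 h at ambient temperature. HTRF 665/620 ratio read; IC50 fitted from initial-rate percent inhibition.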

[3] = target: T3, TrkB (Homo sapiens, UniProt Q16620); assay: TrkB kinase inhibition, HTRF assay; details: LCK peptide substrate, assay ATP concentration targeted 5 μM
T3 construct: purchased Invitrogen PV3616
Experimental: as §1, §2, §3, §4, §5

T1 sequence (Q16288 32-839): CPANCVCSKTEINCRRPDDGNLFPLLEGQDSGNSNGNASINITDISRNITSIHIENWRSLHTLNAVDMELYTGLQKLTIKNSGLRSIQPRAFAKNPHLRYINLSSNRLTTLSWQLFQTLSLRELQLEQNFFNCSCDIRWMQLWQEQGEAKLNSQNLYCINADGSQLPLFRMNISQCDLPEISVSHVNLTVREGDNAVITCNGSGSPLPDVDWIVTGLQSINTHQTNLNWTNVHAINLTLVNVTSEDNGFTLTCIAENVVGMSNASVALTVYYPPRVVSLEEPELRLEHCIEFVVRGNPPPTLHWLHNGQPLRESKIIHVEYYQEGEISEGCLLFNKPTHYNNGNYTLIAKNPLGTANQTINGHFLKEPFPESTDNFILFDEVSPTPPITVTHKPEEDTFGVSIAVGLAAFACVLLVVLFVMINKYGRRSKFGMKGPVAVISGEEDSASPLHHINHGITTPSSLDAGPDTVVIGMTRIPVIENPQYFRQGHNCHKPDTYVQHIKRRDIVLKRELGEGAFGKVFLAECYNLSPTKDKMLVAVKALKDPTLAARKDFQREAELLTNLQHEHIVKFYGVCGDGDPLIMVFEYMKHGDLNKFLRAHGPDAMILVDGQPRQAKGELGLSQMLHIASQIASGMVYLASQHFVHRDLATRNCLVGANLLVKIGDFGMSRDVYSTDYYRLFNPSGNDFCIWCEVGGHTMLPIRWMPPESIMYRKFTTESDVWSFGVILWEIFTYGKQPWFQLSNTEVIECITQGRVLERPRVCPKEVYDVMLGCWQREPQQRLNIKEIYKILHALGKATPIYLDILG
T3 sequence (Q16620 32-822): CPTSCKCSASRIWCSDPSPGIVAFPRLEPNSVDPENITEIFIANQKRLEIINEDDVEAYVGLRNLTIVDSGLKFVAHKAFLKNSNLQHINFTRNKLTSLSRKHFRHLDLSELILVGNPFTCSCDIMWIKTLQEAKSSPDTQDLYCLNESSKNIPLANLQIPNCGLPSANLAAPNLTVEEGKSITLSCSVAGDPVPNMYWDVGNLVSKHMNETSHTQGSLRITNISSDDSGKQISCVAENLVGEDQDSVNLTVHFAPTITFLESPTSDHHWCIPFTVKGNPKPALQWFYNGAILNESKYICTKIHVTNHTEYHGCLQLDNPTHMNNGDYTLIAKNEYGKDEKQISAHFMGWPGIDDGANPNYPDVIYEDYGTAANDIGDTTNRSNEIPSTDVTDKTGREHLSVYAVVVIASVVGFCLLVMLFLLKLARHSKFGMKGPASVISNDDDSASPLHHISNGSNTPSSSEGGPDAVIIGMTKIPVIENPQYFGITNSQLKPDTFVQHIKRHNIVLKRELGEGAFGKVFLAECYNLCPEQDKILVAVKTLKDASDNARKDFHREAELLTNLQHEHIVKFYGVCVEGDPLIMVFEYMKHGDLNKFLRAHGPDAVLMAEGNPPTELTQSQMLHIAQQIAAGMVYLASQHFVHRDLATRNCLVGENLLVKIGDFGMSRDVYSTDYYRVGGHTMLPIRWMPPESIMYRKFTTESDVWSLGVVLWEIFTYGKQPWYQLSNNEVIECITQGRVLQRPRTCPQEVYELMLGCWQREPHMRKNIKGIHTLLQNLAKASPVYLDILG
T2 sequence (P04629 33-796): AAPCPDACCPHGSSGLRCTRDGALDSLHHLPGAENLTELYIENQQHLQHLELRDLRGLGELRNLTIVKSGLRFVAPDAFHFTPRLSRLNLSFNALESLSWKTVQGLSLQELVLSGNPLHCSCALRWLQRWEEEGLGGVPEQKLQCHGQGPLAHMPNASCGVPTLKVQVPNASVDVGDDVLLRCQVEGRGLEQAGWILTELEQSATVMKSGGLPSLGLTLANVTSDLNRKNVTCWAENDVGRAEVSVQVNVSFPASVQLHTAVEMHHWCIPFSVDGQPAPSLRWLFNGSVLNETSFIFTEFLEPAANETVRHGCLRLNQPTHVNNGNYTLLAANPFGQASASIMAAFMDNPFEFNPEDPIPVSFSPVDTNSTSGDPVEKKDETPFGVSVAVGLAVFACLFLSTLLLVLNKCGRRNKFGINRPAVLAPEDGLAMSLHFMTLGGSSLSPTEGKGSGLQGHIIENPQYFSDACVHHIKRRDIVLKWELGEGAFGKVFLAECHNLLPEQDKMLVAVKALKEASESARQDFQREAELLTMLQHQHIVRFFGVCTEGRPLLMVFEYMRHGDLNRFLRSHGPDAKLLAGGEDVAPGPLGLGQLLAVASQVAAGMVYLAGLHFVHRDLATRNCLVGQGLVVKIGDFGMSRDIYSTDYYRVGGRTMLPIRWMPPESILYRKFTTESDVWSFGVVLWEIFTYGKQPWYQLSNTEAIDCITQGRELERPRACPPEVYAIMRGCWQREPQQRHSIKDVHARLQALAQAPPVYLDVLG

Compound | IC50 [1] | IC50 [2] | IC50 [3]
CNC(=O)c1ccc(-c2cc(OC(C)C(F)(F)F)c3c(N)n[nH]c3c2)cc1N1CCN(C2CCCCC2)CC1 (stereo not drawn) [Example 35, 4-{3-amino-4-[(1,1,1-trifluoropropan-2-yl)oxy]-1H-indazol-6-yl}-2-(4-cyclohexylpiperazin-1-yl)-N-methylbenzamide] | 105 nM | 59.5 nM | 91.9 nM
CNC(=O)c1ccc(-c2cc(O[C@@H](C)C(F)(F)F)c3c(N)n[nH]c3c2)cc1N1CCN(C2CCCCC2)CC1 [Example 47, 4-(3-amino-4-{[(2S)-1,1,1-trifluoropropan-2-yl]oxy}-1H-indazol-6-yl)-2-(4-cyclohexylpiperazin-1-yl)-N-methylbenzamide] | 300 nM | 232 nM | 268 nM
CNC(=O)c1ccc(-c2cc(O[C@H](C)C(F)(F)F)c3c(N)n[nH]c3c2)cc1N1CCN(C2CCCCC2)CC1 [Example 56, 4-(3-amino-4-{[(2R)-1,1,1-trifluoropropan-2-yl]oxy}-1H-indazol-6-yl)-2-(4-cyclohexylpiperazin-1-yl)-N-methylbenzamide] | 37.1 nM | 80 nM | 27.8 nM
NC(=O)c1ccc(-c2cc(OC3CCCC3)c3c(N)n[nH]c3c2)cc1N1CCN(c2cccnc2)CC1 [Example 69, 4-[3-amino-4-(cyclopentyloxy)-1H-indazol-6-yl]-2-[4-(pyridin-3-yl)piperazin-1-yl]benzamide] | 3.09 nM | 2.95 nM | 1.63 nM
NC(=O)c1ccc(-c2cc(OC3CCCC3)c3c(N)n[nH]c3c2)cc1N1CCN(CCN2CCOCC2)CC1 [Example 70, 4-[3-amino-4-(cyclopentyloxy)-1H-indazol-6-yl]-2-{4-[2-(morpholin-4-yl)ethyl]piperazin-1-yl}benzamide] | 145 nM | 34.9 nM | 83.7 nM
NC(=O)c1ccc(-c2cc(OC3CCCC3)c3c(N)n[nH]c3c2)cc1N1CCN(c2ccccc2)CC1 [Example 71, 4-[3-amino-4-(cyclopentyloxy)-1H-indazol-6-yl]-2-(4-phenylpiperazin-1-yl)benzamide] | 1.67 nM | 4.92 nM | 1.5 nM
NC(=O)c1ccc(-c2cc(OC3CCCC3)c3c(N)n[nH]c3c2)cc1N1CCN(c2ccc(F)cc2)CC1 [Example 72, 4-[3-amino-4-(cyclopentyloxy)-1H-indazol-6-yl]-2-[4-(4-fluorophenyl)piperazin-1-yl]benzamide] | 5.35 nM | 17.5 nM | 4.92 nM
CC(C)(C)OC(=O)N1CCN(c2cc(-c3cc(OC4CCCC4)c4c(N)n[nH]c4c3)ccc2C(N)=O)CC1 [Example 73, tert-butyl 4-{5-[3-amino-4-(cyclopentyloxy)-1H-indazol-6-yl]-2-carbamoylphenyl}piperazine-1-carboxylate] | 3.53 nM | 13.7 nM | 3.17 nM
NC(=O)c1ccc(-c2cc(OC3CCCC3)c3c(N)n[nH]c3c2)cc1N1CCN(C2CCCCC2)CC1 [Example 74, 4-[3-amino-4-(cyclopentyloxy)-1H-indazol-6-yl]-2-(4-cyclohexylpiperazin-1-yl)benzamide] | 8.32 nM | 19 nM | 3.89 nM
CC(=O)N1CCN(c2cc(-c3cc(OC4CCCC4)c4c(N)n[nH]c4c3)ccc2C(N)=O)CC1 [Example 77, 2-(4-acetylpiperazin-1-yl)-4-[3-amino-4-(cyclopentyloxy)-1H-indazol-6-yl]benzamide] | 158 nM | 51.1 nM | 84.4 nM
CC(Oc1cc(-c2ccc(C(N)=O)c(N3CCN(c4cccnc4)CC3)c2)cc2[nH]nc(N)c12)C(F)(F)F (stereo not drawn) [Example 91, 4-{3-amino-4-[(1,1,1-trifluoropropan-2-yl)oxy]-1H-indazol-6-yl}-2-[4-(pyridin-3-yl)piperazin-1-yl]benzamide] | 2.89 nM | 5.31 nM | 2.01 nM
CC(Oc1cc(-c2ccc(C(N)=O)c(N3CCN(c4ccccc4)CC3)c2)cc2[nH]nc(N)c12)C(F)(F)F (stereo not drawn) [Example 92, 4-{3-amino-4-[(1,1,1-trifluoropropan-2-yl)oxy]-1H-indazol-6-yl}-2-(4-phenylpiperazin-1-yl)benzamide] | 1.72 nM | 3.35 nM | 1.27 nM
CC(C)N1CCN(c2cc(-c3cc(OC(C)C(F)(F)F)c4c(N)n[nH]c4c3)ccc2C(N)=O)CC1 (stereo not drawn) [Example 101, 4-{3-amino-4-[(1,1,1-trifluoropropan-2-yl)oxy]-1H-indazol-6-yl}-2-(4-isopropylpiperazin-1-yl)benzamide] | 305 nM | 377 nM | 317 nM
CNC(=O)c1ccc(-c2cc(OC(C)C)c3c(N)n[nH]c3c2)cc1N1CCN(C2CCCCC2)CC1 [Example 109, 4-(3-amino-4-isopropoxy-1H-indazol-6-yl)-2-(4-cyclohexylpiperazin-1-yl)-N-methylbenzamide] | 4.89 nM | 15.7 nM | 2.58 nM
CNC(=O)c1ccc(-c2cc(OC3CCOCC3)c3c(N)n[nH]c3c2)cc1N1CCN(CC2CCCC2)CC1 [Example 110, 4-[3-amino-4-(tetrahydro-2H-pyran-4-yloxy)-1H-indazol-6-yl]-2-[4-(cyclopentylmethyl)piperazin-1-yl]-N-methylbenzamide] | 2.58 nM | 2.73 nM | 1.63 nM
CC(=O)Nc1ccc(-c2cc(OC3CCOCC3)c3c(C)n[nH]c3c2)cc1OCCOc1ccccc1 [Example 130, N-{4-[3-methyl-4-(tetrahydro-2H-pyran-4-yloxy)-1H-indazol-6-yl]-2-(2-phenoxyethoxy)phenyl}acetamide] | 1.5 nM | 13.7 nM | 1.5 nM
